Data on 13 molecules can be found in PubChem BioAssay (NCI).

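Assay format: 96-well plates, 48-hour exposure. At the TGI there is no net growth.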

Test systems include OVCAR-5 ovarian; MOLT-4 leukemia; T-47D breast; SF-295 CNS; NCI-H460 lung; HCC-2998 colon; MDA-MB-231 breast; OVCAR-4 ovarian; HOP-62 NSCLC; SK-MEL-5 melanoma.
Common to all, as to assay: growth of human tumour cells (NCI), 48 h

With `NC(=O)C(=CNC(=S)Nc1cccc(C(F)(F)F)c1)C(N)=O`, the TGI in the assay with OVCAR-5 ovarian, in the assay on MOLT-4 leukemia, with T-47D breast, with SF-295 CNS, in the assay with NCI-H460 lung and with HCC-2998 colon was > 100 µM in each case. The TGI with MDA-MB-231 breast, in the assay with OVCAR-4 ovarian, in the assay with HOP-62 NSCLC and in the assay with SK-MEL-5 melanoma was > 100 µM throughout.
For the molecule `CCCCC(=O)Nc1ccc2c(C)cc(-c3ccc(-c4cc(-c5ccc(C)cc5)cc(-c5ccc(-c6cc(C)c7ccc(NC(=O)CCCC)nc7n6)cc5)n4)cc3)nc2n1`, the TGI in the assay with OVCAR-5 ovarian, in the assay with MOLT-4 leukemia, in the assay on T-47D breast, in the assay with SF-295 CNS, in the assay on NCI-H460 lung and in the assay on HCC-2998 colon was > 100 µM in each case. In addition, the TGI with MDA-MB-231 breast, with OVCAR-4 ovarian, in the assay with HOP-62 NSCLC and in the assay on SK-MEL-5 melanoma was > 100 µM in each case.
`N#Cc1c(O)c2ccccc2[nH]c1=O`: the TGI in the assay on OVCAR-5 ovarian, in the assay with MOLT-4 leukemia, in the assay on T-47D breast, with SF-295 CNS, in the assay with HCC-2998 colon and in the assay with MDA-MB-231 breast was > 100 µM throughout. The TGI with OVCAR-4 ovarian, in the assay with HOP-62 NSCLC and in the assay with SK-MEL-5 melanoma was > 100 µM each time.
In the case of `O=C1/C(=C/c2ccc(Cl)cc2)CSC/C1=C\c1ccc(Cl)cc1`, the TGI in the assay on OVCAR-5 ovarian was 5.57 µM; in the assay with MOLT-4 leukemia it was 9 µM; with T-47D breast it was 23.2 µM; in the assay on SF-295 CNS, 4.21 µM; in the assay on NCI-H460 lung, 30.5 µM; in the assay on HCC-2998 colon it was 4.09 µM. The TGI in the assay with MDA-MB-231 breast stood at 27.2 µM; in the assay with OVCAR-4 ovarian, 14.1 µM; in the assay with HOP-62 NSCLC, 16.2 µM; with SK-MEL-5 melanoma, 10.6 µM.
For the molecule `CSc1c(C#N)c(S)[nH]c(=O)c1C#N`, the TGI in the assay on OVCAR-5 ovarian, in the assay with MOLT-4 leukemia, in the assay on T-47D breast, in the assay with NCI-H460 lung, in the assay with HCC-2998 colon and with MDA-MB-231 breast was > 100 µM throughout. For the same molecule, the TGI was > 100 µM in the assay with OVCAR-4 ovarian and 98.9 µM in the assay with SK-MEL-5 melanoma.
On to `O=Nc1c(O)cc(Nc2cccnc2)c2ccccc12`, for which the TGI with OVCAR-5 ovarian is > 100 µM; in the assay with MOLT-4 leukemia it was 41.6 µM; with T-47D breast it was > 100 µM; in the assay on SF-295 CNS, > 100 µM; in the assay on NCI-H460 lung it was > 100 µM; in the assay with HCC-2998 colon it was 95.4 µM. For the same molecule, the TGI in the assay on MDA-MB-231 breast was 47.3 µM; in the assay with OVCAR-4 ovarian, > 100 µM; in the assay with HOP-62 NSCLC it was > 100 µM; with SK-MEL-5 melanoma, 11.6 µM.
Turning to `CCCC(=O)NC(Nc1ccc(S(=O)(=O)Nc2ccc(OC)nn2)cc1)(C(F)(F)F)C(F)(F)F`, the TGI in the assay with OVCAR-5 ovarian, with MOLT-4 leukemia, in the assay on T-47D breast, in the assay on SF-295 CNS, in the assay with NCI-H460 lung and in the assay with HCC-2998 colon was > 100 µM each time. Moreover, the TGI in the assay with MDA-MB-231 breast, in the assay on OVCAR-4 ovarian, with HOP-62 NSCLC and in the assay on SK-MEL-5 melanoma was > 100 µM in each case.
Take `COc1ccc(/C=C/C(=O)c2ccc(OC(=O)/C=C/c3ccccc3)cc2)cc1`: the TGI was > 100 µM with OVCAR-5 ovarian; 50.6 µM in the assay with MOLT-4 leukemia; 62.8 µM in the assay on T-47D breast; > 64 µM in the assay with SF-295 CNS; 97.8 µM with NCI-H460 lung; 32.8 µM in the assay on HCC-2998 colon. The TGI was > 87.2 µM in the assay with MDA-MB-231 breast, 92.8 µM in the assay on OVCAR-4 ovarian, > 100 µM in the assay on HOP-62 NSCLC and > 70 µM with SK-MEL-5 melanoma.
Take `COc1cccc(/C=C\c2ccc(O)cc2)c1`: the TGI with OVCAR-5 ovarian was > 100 µM; in the assay on MOLT-4 leukemia it was 38.7 µM; in the assay on T-47D breast it was > 84.2 µM; in the assay on SF-295 CNS, > 100 µM; in the assay on NCI-H460 lung, > 67.3 µM; in the assay on HCC-2998 colon, > 62.8 µM. Further, the TGI was > 100 µM with MDA-MB-231 breast, > 100 µM in the assay with OVCAR-4 ovarian, > 100 µM in the assay with HOP-62 NSCLC and > 51.7 µM in the assay on SK-MEL-5 melanoma.
Consider `COc1cc2ccc1OCc1cccc(n1)COc1ccc(cc1OC)C=NCCNCCN=C2`, for which the TGI in the assay on OVCAR-5 ovarian, in the assay on MOLT-4 leukemia, with T-47D breast, in the assay with SF-295 CNS, with NCI-H460 lung and in the assay with HCC-2998 colon was > 100 µM in each case. For the same molecule, the TGI with MDA-MB-231 breast, in the assay on OVCAR-4 ovarian, in the assay with HOP-62 NSCLC and in the assay on SK-MEL-5 melanoma was > 100 µM each time.
On to `O=C1C(S(=O)(=O)c2ccccc2)=C(CS(=O)(=O)c2ccccc2)[C@@H](OCc2ccccc2)[C@@H]1OCc1ccccc1`, for which the TGI with OVCAR-5 ovarian was 75.4 µM; in the assay on MOLT-4 leukemia, 46.7 µM; in the assay with T-47D breast, > 100 µM; in the assay on SF-295 CNS, 40.4 µM; in the assay on NCI-H460 lung it was 50.5 µM; with HCC-2998 colon, 36.3 µM. The TGI with MDA-MB-231 breast was 60 µM; with OVCAR-4 ovarian it was 57.8 µM; in the assay on HOP-62 NSCLC, 53.2 µM; with SK-MEL-5 melanoma, 40.2 µM.
On to `COc1ccc(C(=O)/C=C/c2ccc(OCC(=N)N)cc2)cc1`, for which the TGI in the assay with OVCAR-5 ovarian was determined as 83.9 µM; with MOLT-4 leukemia, 30.9 µM; with T-47D breast, 26.5 µM; with SF-295 CNS it was 30 µM; in the assay on HCC-2998 colon, 30.4 µM; in the assay with MDA-MB-231 breast, 27.8 µM. Further, the TGI was found to be 30.5 µM in the assay on OVCAR-4 ovarian, 29.9 µM in the assay on HOP-62 NSCLC and 33.1 µM with SK-MEL-5 melanoma.
On to `CC(O)[C@@]1(c2ccccc2)CC2(CCN(C)CC2)O[C@H]1C` (stereo partly specified), for which the TGI with OVCAR-5 ovarian was > 100 µM; in the assay on MOLT-4 leukemia it was > 100 µM; in the assay on T-47D breast, 98 µM; in the assay on SF-295 CNS, > 100 µM; in the assay with NCI-H460 lung it was > 100 µM; in the assay on HCC-2998 colon, > 100 µM. Also, the TGI in the assay on MDA-MB-231 breast, with OVCAR-4 ovarian, with HOP-62 NSCLC and with SK-MEL-5 melanoma was > 100 µM throughout.
